Where two headings read alike, the source gives them in different places. Blank lines part the entries; values can stand above or below the compound they belong to.
Key:
[1] = system: greenhouse red spider mite (Tetranychus urticae); test: Tetranychus urticae spray test, OP-resistant (TETRUR), bean leaf disks; type: in vivo; settings: bean leaf disks, application rate 500 g/ha, after 6 days; for pest or weed control at 500 g/ha: Tetranychus urticae, foliar, 144 h, read-out: efficacy in %
Outline: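 Bean leaf disks carrying all stages of OP-resistant Tetranychus urticae sprayed with compound in acetone/dimethylformamide diluted in emulsifier water. Kill assessed after 6 days as % efficacy, 100% meaning all mites dead.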

[2] = log P determination by HPLC on reversed-phase columns (C 18), analogously to OECD Guideline 117; type: physicochemical; settings: for chromatographic logP: reversed-phase C18 HPLC column; for logP (HCOOH): LC-MS in the acidic range, pH 2.7, 0.1% aqueous formic acid / acetonitrile; for logP (HCOOH) / logP (neutral): HPLC reversed-phase C 18; for logP (neutral): LC-MS in the neutral range, pH 7.8, 0.001 molar aqueous ammonium hydrogencarbonate / acetonitrile
Outline: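 Reversed-phase C18 HPLC per OECD 117 with LC-MS detection and a linear 10→95% acetonitrile gradient. Acidic log P run at pH 2.7 with 0.1% formic acid in both eluents. Neutral log P run at pH 7.8 with 0.001 M aqueous ammonium hydrogencarbonate.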

[3] = acidic range, pH 2.7, 0.1% aqueous formic acid and acetonitrile, read-out: log P[a] / log P(HCOOH)
[4] = neutral range, pH 7.8, 0.001 molar aqueous ammonium hydrogencarbonate and acetonitrile, read-out: log P[b] / log P(neutral)

chromatographic logP [2, 3]: 2.4 | chromatographic logP [2, 4]: 2.39
Structure (SMILES): Cc1cc(F)c(-n2c(=O)n(C)n(C)c2=O)cc1SCC(F)(F)F [Example 116, 4-{2-Fluoro-4-methyl-5-[(2,2,2-trifluoroethyl)sulfanyl]phenyl}-1,2-dimethyl-1,2,4-triazolidine-3,5-dione]
pest or weed control at 500 g/ha [1]: 100%

chromatographic logP [2, 3]: 1.54 | chromatographic logP [2, 4]: 1.5
Structure (SMILES): Cc1cc(F)c(-n2c(=O)n(C)n(C)c2=O)cc1[S+]([O-])CC(F)(F)F (stereo not shown) [Example 117, 4-{2-Fluoro-4-methyl-5-[(2,2,2-trifluoroethyl)sulfinyl]phenyl}-1,2-dimethyl-1,2,4-triazolidine-3,5-dione]
pest or weed control at 500 g/ha [1]: 90%

chromatographic logP [2, 3]: 3.03
Structure (SMILES): CCn1c(=O)n(-c2cc(SCC(F)(F)F)c(C)cc2F)c(=O)n1CC [Example 118, 1,2-Diethyl-4-{2-fluoro-4-methyl-5-[(2,2,2-trifluoroethyl)sulfanyl]phenyl}-1,2,4-triazolidine-3,5-dione]
pest or weed control at 500 g/ha [1]: 100%

Structure (SMILES): C#CCn1c(=O)n(-c2cc(SCC(F)(F)F)c(C)cc2F)c(=O)n1C [Example 121]
efficacy in % [1]: 100% | logP (HCOOH) [2]: 2.81

chromatographic logP [2, 3]: 2.71
Structure (SMILES): CCn1c(=O)n(-c2cc(SCC(F)(F)F)c(C)cc2F)c(=O)n1C [Example 122, 1-Ethyl-4-{2-fluoro-4-methyl-5-[(2,2,2-trifluoroethyl)sulfanyl]phenyl}-2-methyl-1,2,4-triazolidine-3,5-dione]
pest or weed control at 500 g/ha [1]: 90%

Structure (SMILES): C=CCn1c(=O)n(-c2cc(SCC(F)(F)F)c(C)cc2F)c(=O)n1C [Example 125]
efficacy in % [1]: 100% | logP (HCOOH) [2]: 2.91

Structure (SMILES): Cc1cc(F)c(-n2c(=O)n(C)n(CC3CC3)c2=O)cc1SCC(F)(F)F [Example 126]
efficacy in % [1]: 90% | logP (HCOOH) [2]: 3.15

Structure (SMILES): Cc1cc(F)c(-n2c(=O)n(C3CC3)c(=O)n2CC(F)(F)F)cc1SCC(F)(F)F [Example 129]
efficacy in % [1]: 100% | logP (HCOOH) [2]: 3.48 | logP (neutral) [2]: 3.43

Structure (SMILES): C=CCn1c(=O)n(C2CC2)c(=O)n1-c1cc(SCC(F)(F)F)c(C)cc1F [Example 130]
efficacy in % [1]: 100% | logP (HCOOH) [2]: 3.31 | logP (neutral) [2]: 3.28

Structure (SMILES): CCn1c(=O)n(C)n(-c2ccc(C)c(SCC(F)(F)F)c2)c1=O [Example 131]
efficacy in % [1]: 90% | logP (HCOOH) [2]: 3.00 | logP (neutral) [2]: 2.97

Structure (SMILES): Cc1ccc(-n2c(=O)n(C(C)C)c(=O)n2C)cc1SCC(F)(F)F [Example 132]
efficacy in % [1]: 100% | logP (HCOOH) [2]: 3.42 | logP (neutral) [2]: 3.38

Structure (SMILES): CCn1c(=O)n(C(C)C)c(=O)n1-c1ccc(C)c(SCC(F)(F)F)c1 [Example 133]
efficacy in % [1]: 100% | logP (HCOOH) [2]: 3.77 | logP (neutral) [2]: 3.73

Structure (SMILES): CCn1c(=O)n(C(C)(C)C)c(=O)n1-c1ccc(C)c(SCC(F)(F)F)c1 [Example 134]
efficacy in % [1]: 100% | logP (HCOOH) [2]: 4.32 | logP (neutral) [2]: 4.27

Structure (SMILES): Cc1ccc(-n2c(=O)n(C(C)(C)C)c(=O)n2C(C)C)cc1SCC(F)(F)F [Example 135]
efficacy in % [1]: 90% | logP (HCOOH) [2]: 4.77 | logP (neutral) [2]: 4.70

Structure (SMILES): Cc1cc(F)c(-n2c(=O)n(C3CCCCC3)c(=O)n2C)cc1SCC(F)(F)F [Example 136]
efficacy in % [1]: 90% | logP (HCOOH) [2]: 4.17 | logP (neutral) [2]: 4.13

Structure (SMILES): CCn1c(=O)n(C(C)(C)C)c(=O)n1-c1cc([S+]([O-])CC(F)(F)F)c(C)cc1F (stereo not shown) [Example 137]
efficacy in % [1]: 90% | logP (HCOOH) [2]: 3.02 | logP (neutral) [2]: 2.96

Structure (SMILES): CCn1c(=O)n(CC)n(-c2ccc(C)c([S+]([O-])CC(F)(F)F)c2)c1=O (stereo not shown) [Example 138]
efficacy in % [1]: 90% | logP (HCOOH) [2]: 2.20 | logP (neutral) [2]: 2.19

Structure (SMILES): Cc1ccc(-n2c(=O)n(C(C)(C)C)c(=O)n2C)cc1[S+]([O-])CC(F)(F)F (stereo not shown) [Example 139]
efficacy in % [1]: 100% | logP (HCOOH) [2]: 2.71 | logP (neutral) [2]: 2.70

Reference: US9981928B2, “Aryl sulfide derivatives and aryl sulfoxide derivatives as acaricides and insecticides” (BAYER CROPSCIENCE AKTIENGESELLSCHAFT, priority 2013, dated 2018)
